Measured values reported in patent publication US10342792B2, “Slow-release conjugates of SN-38” (ProLynx LLC, priority 2013, dated 2019).
“And” between values parts separate entries of the source, which are not always exact repeats. Equal values may be shown once. Read-outs that look alike come from different tables or passages of the source.

Key:
[1] = cited from earlier work
[2] = fold more active than irinotecan; cited from earlier work
[3] = Pharmacokinetic model prediction for human using allometric scaling; conditions: estimated by allometric scaling
[4] = ionization of the 10-OH; cited from earlier work
[5] = in vivo; conditions: female, Sprague-Dawley, rat
Method: The samples were centrifuged at approximately 1,500×g (force) for 10 minutes at 2 to 8° C. to remove red blood cells and obtain ˜150 uL plasma. The plasma was divided into 2 aliquots and transferred to cryogenic vials and stored in a freezer at −80° C. prior to analysis.
For analysis, the samples were thawed on ice and mixed with 2 volumes of acetonitrile/0.5% acetic acid containing 8 ng/mL of camptothecin as internal standard. Precipitated protein was removed by centrifugation at 16,000×g for 10 min at 4° C. Sample supernatants (20 uL) were analyzed using a Phenomenex® 300 Å Jupiter 5 um 150×4.6 mm C18 HPLC column thermostatted at 40° C. using a gradient of 100 mM sodium phosphate, 3 mM heptane sulfonate, pH 4.0 (Buffer A) and 75% acetonitrile in water (Buffer B) at 1.0 mL/min. […] Sample elution was followed with a diode array detector and a fluorescence detector with excitation set at 370 nm and the emission set at 470 nm for the first 9 min followed by emission at 534 nm for the final 10 min. Concentrations were calculated by comparison of peak areas to standard curves of the conjugate (absorbance 380 nm), and SN-38 (fluorescence Ex: 370 nm; Em: 534 nm). […]
Plasma concentration versus time data for the conjugate were analyzed using a two-phase model where C(t)=A*exp(−αt)+B*exp(−βt) where A+B=dose/Vd. […]

[6] = cited from earlier work; remark: listed apart in the source

SMILES: CCc1c2c(nc3ccc(O)cc13)-c1cc3c(c(=O)n1C2)COC(=O)[C@]3(O)CC [SN-38, 7-ethyl-10-hydroxycamptothecin]
- volume of distribution Vd, reported value [1]: 0.18 L/kg
- activity relative to irinotecan [2]: ~1000 ×
- Vss [3]: ~0.15 L/kg
- kc1, elimination rate constant [3]: ~0.7 h⁻¹
- kc1 t1/2 [3]: ~60 min
- pKa [4]: ~8.6
- half-life [5]: 15 min
- kc1, elimination of free SN-38 from the plasma [5]: 2.77 h⁻¹
- aqueous solubility ([6]; aqueous / water): 18 µM and 17 µM
- aqueous solubility ([6]; in water): 7 µg/mL
